Measured values: US20250042847A1, “SUBSTITUTED PHENYLPROPIONIC ACID DERIVATIVE AND USE THEREOF” (TUOJIE BIOTECH (SHANGHAI) CO., LTD., priority 2021, published 2025)
Where a name gives a salt, the structure may show the parent alone. One block for each molecule: values may come before it.

Assays:
[1] = biological target: Apo(a) and ApoB protein assembly (Homo sapiens (Human), UniProt P08519); assay: Test for activity of compounds in inhibiting Lp(a) assembly (double antibody ELISA); format: biochemical; details: plasma from human transgenic hApo(a) and hApoB mice; 37° C., 2 h; ELISA absorbance at 450 nm
Description: The disclosure used a double antibody ELISA method to measure the efficiency of Apo(a) and ApoB protein assembly. The antibodies were ApoB-Capture antibody (Mabtech) and Apo(a)-Detector antibody (Abcam); the test samples were plasma from human transgenic hApo(a) and hApoB mice and were diluted 500-fold before use.
Experimental steps: Equal amounts of Apo(a) and ApoB serum were mixed with a serially diluted test compound (highest concentration at 100 nM, serially diluted 3-fold). The mixture was incubated in a 37° C. incubator for 2 h. The reaction was then terminated by adding 6-aminocaproic acid (EACA, purchased from Sigma) to a final concentration of 150 mM. The post-reaction solution was then added to an ELISA plate pre-coated with ApoB-Capture antibody, and the plate was incubated at room temperature for 2 h. Then the plate was washed 4 times with wash buffer; biotinylated Apo(a)-Detector antibody was added, and the plate was incubated at room temperature for 1 h. The plate was washed, and the chromogenic substrate 3,3′,5,5′-tetramethylbenzidine (TMB, purchased from Abcam) solution was added. After the plate was incubated at room temperature for 15 min, a reaction stop solution was added. Immediately after the solution was mixed well, the absorbance at 450 nm was measured using a microplate reader. Finally, data analysis and IC50 calculation were performed using GraphPad Prism 9 software.
The 0% inhibition rate for Apo(a) and ApoB protein assembly corresponds to the OD value where the compound concentration was 0 (1% DMSO); the 100% inhibition rate for Apo(a) and ApoB protein assembly corresponds to the OD value where only ApoB protein solution (a dilution of plasma from hApoB mice) was added.

[2] = In vivo pharmacokinetic experiment on beagles; details: intragastric, 10 mg/kg
Description: (§1) Beagles were used as test animals. After intragastric administration of the compound of the disclosure to beagles, plasma concentrations at different time points were determined by LC/MS/MS. The pharmacokinetic behavior of the compound of the disclosure in beagles was studied and its pharmacokinetic profile was evaluated.
Test Animals: 2 Healthy Male Beagles Aged 8-36 Months Per Group
Compound solution preparation: A certain amount of compound was weighed out and normal saline was added to form a 2 mg/mL colorless clear solution.
Administration: Beagles were fasted overnight and then intragastrically dosed. Reference 1 and compound 6 were both administered at a dose of 10 mg/kg.
(§2) Procedure: Beagles were intragastrically administered the compound of the disclosure. Blood samples of about 0.6 mL were collected from the peripheral vein at 0.25, 0.5, 1, 2, 4, 6, 8, and 24 h post-dose and placed into test tubes containing EDTA-K2. The blood samples were centrifuged at about 4° C. at 2000 rpm for 10 min to separate plasma, and the plasma was stored at −75° C.
(§3) Determination of the content of the test compound in beagle plasma at these different blood collection time points: Samples of 33 μL (30 μL of plasma and 3 μL of blank) of the beagle plasma collected at these time points post-dose were taken and added to 18 μL of a 6% perchloric acid solution. After 30 s of vortexing, the mixture was centrifuged at a temperature of 4° C. at 3900 rpm for 15 min, and 200 μL of alkalinized (the pH was adjusted to 10-11 with ammonia water) acetonitrile solution containing dexamethasone as an internal standard was then added to precipitate protein. After 30 s of vortexing, the mixture was centrifuged at 4° C. at 3900 rpm for 15 min. The supernatants of the plasma samples were taken and 3-fold diluted with water, and 8 μL of dilution was taken for LC/MS/MS analysis.
(§4) After plasma concentrations were determined by LC/MS/MS analysis, pharmacokinetic parameters were calculated using WinNonlin 6.1 software and a non-compartmental model method.

[3] = In vivo pharmacokinetic experiment on cynomolgus monkeys; details: intragastric; for AUC / half-life / Cmax: both sexes, cynomolgus monkey, plasma, po; for AUC: read-out: Area under curve AUC; for half-life: read-out: Half-life T1/2 (converted); for Cmax: read-out: Maximum plasma concentration Cmax
Description: as §1, with “Cynomolgus monkeys” for “Beagles”, “cynomolgus monkeys,” for “beagles,”, “cynomolgus monkeys” for “beagles”
Test Animals: 2 Healthy Cynomolgus Monkeys Aged 24-36 Months Per Group (One Male and One Female)
Compound solution preparation: Certain amounts of compound were weighed out and normal saline was added to form 10 mg/mL (reference 1) and 3 mg/mL (compound 6) colorless clear solutions.
Administration: Cynomolgus monkeys were fasted overnight and then intragastrically dosed. Reference 1 was administered at a dose of 50 mg/kg, and compound 6 was administered at a dose of 15 mg/kg.
as §2, with “Cynomolgus monkeys” for “Beagles”, “0.5” for “0.6”
as §3, with “cynomolgus monkey” for “beagle”
as §4

[4] = High-dose single-dose tolerance experiment on mice; format: in vivo, C57/6J mice; details: for body weight trend of the mice: 7 d after high-dose (1000 mg/kg) administration, conclusion in words; for Mouse body weight, Day 0 / Mouse body weight, Day 3 / Mouse body weight, Day 5 / Mouse body weight, Day 7: male C57/6J mice, single oral gavage 1000 mg/kg, mean
Description: C57/6J mice were used as test animals and administered a high dose of the compound of the disclosure by oral gavage. Clinical observations were carried out on the mice, and the safety of the compound of the disclosure was evaluated.
Experimental method: 8 male C57/6J mice were numbered 1-8 and weighed. The mice were fasted for 4 h before the experiment and weighed after the fast (0 h). Six mice with body weights closer to the average were selected and divided into 2 groups of 3.
The first group (G1) was administered reference 1, and the second group (G2) was administered the compound of the disclosure, Example 6. In both groups G1 and G2, the compounds were administrated by oral gavage at a dose of 1000 mg/kg, with normal saline as a vehicle. Clinical observations were carried out on the mice in the experimental group at 15 min, 30 min, 1 h, 2 h, 4 h, 6 h, and 24 h post-dose, and both groups were given food at 2 h post-dose.

Chain of Apo(a) and ApoB protein assembly (P08519 20-2040): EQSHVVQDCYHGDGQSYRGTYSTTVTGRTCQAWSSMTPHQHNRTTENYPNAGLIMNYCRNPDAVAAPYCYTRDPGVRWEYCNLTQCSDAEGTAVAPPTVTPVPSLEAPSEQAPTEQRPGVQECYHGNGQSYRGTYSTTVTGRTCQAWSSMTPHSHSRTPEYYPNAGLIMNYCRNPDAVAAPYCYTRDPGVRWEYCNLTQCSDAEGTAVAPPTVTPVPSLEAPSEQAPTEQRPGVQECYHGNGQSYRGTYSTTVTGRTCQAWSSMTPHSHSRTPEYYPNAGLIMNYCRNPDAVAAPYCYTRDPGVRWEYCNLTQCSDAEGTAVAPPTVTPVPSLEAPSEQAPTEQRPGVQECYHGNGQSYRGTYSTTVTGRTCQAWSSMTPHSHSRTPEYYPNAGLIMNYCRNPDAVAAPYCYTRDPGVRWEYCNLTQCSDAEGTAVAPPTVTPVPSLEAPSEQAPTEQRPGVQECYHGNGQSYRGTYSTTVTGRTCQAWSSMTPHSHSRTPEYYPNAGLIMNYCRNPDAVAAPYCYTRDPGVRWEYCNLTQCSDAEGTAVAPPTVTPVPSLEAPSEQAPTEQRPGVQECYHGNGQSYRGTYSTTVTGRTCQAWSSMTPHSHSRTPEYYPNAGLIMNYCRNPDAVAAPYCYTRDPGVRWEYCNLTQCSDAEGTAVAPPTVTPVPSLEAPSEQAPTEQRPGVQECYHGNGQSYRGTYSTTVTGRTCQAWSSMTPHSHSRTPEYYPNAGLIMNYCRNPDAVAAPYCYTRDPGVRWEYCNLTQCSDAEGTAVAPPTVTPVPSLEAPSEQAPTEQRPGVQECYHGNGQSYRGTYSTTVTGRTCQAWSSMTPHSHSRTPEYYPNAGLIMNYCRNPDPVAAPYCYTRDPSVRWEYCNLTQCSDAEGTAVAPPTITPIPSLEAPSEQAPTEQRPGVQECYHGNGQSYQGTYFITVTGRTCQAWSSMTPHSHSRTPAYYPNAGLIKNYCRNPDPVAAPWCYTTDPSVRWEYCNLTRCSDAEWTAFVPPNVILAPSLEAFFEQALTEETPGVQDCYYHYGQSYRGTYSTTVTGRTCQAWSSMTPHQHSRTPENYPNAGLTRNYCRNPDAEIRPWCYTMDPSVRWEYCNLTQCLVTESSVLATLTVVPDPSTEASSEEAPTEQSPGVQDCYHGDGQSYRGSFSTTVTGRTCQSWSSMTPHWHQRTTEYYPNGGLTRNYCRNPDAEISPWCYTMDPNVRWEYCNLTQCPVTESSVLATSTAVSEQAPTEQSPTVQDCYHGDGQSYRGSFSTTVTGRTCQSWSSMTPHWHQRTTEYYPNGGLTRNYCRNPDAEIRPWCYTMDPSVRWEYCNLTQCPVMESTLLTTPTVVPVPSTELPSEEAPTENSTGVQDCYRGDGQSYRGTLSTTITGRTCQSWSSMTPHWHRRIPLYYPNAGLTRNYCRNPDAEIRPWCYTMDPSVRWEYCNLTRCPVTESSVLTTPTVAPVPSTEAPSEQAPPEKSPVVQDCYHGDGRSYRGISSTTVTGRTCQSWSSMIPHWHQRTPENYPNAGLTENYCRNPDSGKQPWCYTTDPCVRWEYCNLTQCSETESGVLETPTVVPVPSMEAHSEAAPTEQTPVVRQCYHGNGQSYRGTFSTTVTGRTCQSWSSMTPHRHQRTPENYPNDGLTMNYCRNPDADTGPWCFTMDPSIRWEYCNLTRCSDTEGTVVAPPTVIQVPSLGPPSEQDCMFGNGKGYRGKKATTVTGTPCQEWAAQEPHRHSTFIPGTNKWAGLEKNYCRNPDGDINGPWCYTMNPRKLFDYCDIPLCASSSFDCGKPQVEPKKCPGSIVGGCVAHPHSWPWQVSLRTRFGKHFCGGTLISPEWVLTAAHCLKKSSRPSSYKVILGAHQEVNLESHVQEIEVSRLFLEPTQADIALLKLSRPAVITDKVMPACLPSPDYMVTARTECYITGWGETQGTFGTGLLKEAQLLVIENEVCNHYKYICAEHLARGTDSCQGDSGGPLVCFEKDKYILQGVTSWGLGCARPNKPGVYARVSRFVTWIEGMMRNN

SMILES: O=C(O)[C@@H](Cc1cc(F)cc(CN(Cc2cc(F)cc(C[C@H](C(=O)O)[C@H]3CCNC3)c2)Cc2cc(F)cc(C[C@H](C(=O)O)[C@H]3CCNC3)c2)c1)[C@H]1CCNC1 [Compound 1, (2S)-3-(3-{[Bis({3-[(2S)-2-carboxy-2-[(3R)-pyrrolidin-3-yl]ethyl]-5-fluorophenyl}methyl)amino]methyl}-5-fluorophenyl)-2-[(3R)-pyrrolidin-3-yl]propanoic acid]
IC50 [1]: 0.75 nM

SMILES: O=C(O)[C@@H](Cc1cccc(CN(CCN(Cc2cccc(C[C@H](C(=O)O)[C@H]3CCNC3)c2)Cc2cccc(C[C@H](C(=O)O)[C@H]3CCNC3)c2)Cc2cccc(C[C@H](C(=O)O)[C@H]3CCNC3)c2)c1)[C@H]1CCNC1 [Compound 4, (2S)-3-{3-[({2-[Bis({3-[(2S)-2-carboxy-2-[(3R)-pyrrolidin-3-yl]ethyl]phenyl}methyl)amino]ethyl}({3-[(2S)-2-carboxy-2-[(3R)-pyrrolidin-3-yl]ethyl]phenyl}methyl)amino)methyl]phenyl}-2-[(3R)-pyrrolidin-3-yl]propanoic acid]
IC50 [1]: 0.85 nM

SMILES: O=C(O)C(F)(Cc1cccc(CN(Cc2cccc(CC(F)(C(=O)O)[C@H]3CCNC3)c2)Cc2cccc(CC(F)(C(=O)O)[C@H]3CCNC3)c2)c1)[C@H]1CCNC1 (stereo partly drawn) [Compound 3, 3-[3-({Bis[(3-{2-carboxy-2-fluoro-2-[(3S)-pyrrolidin-3-yl]ethyl}phenyl)methyl]amino}methyl)phenyl]-2-fluoro-2-[(3S)-pyrrolidin-3-yl]propanoic acid]
IC50 [1]: 1.4 nM

SMILES: O=C(O)[C@@H](Cc1cccc(CN(Cc2cccc(C[C@H](C(=O)O)C3CCNCC3)c2)Cc2cccc(C[C@H](C(=O)O)C3CCNCC3)c2)c1)C1CCNCC1 [Compound 2, (2S)-3-(3-{[Bis({3-[(2S)-2-carboxy-2-(piperidin-4-yl)ethyl]phenyl}methyl)amino]methyl}phenyl)-2-(piperidin-4-yl)propanoic acid]
IC50 [1]: 1.7 nM

Second part, led by results:

IC50 [1]: 0.78 nM
SMILES: O=C(O)[C@@H](Cc1cccc(CNCCN(Cc2cccc(C[C@H](C(=O)O)[C@H]3CCNC3)c2)Cc2cccc(C[C@H](C(=O)O)[C@H]3CCNC3)c2)c1)[C@H]1CCNC1 [Compound 5, (2S)-3-(3-{[({3-[(2S)-2-Carboxy-2-[(3R)-pyrrolidin-3-yl]ethyl]phenyl}methyl)({2-[({3-[(2S)-2-carboxy-2-[(3R)-pyrrolidin-3-yl]ethyl]phenyl}methyl)amino]ethyl})amino]methyl}phenyl)-2-[(3R)-pyrrolidin-3-yl]propanoic acid]

IC50 [1]: 0.76 nM
SMILES: O=C(O)[C@@H](Cc1cccc(CN(CCNc2cccc(C[C@H](C(=O)O)[C@H]3CCNC3)c2)Cc2cccc(C[C@H](C(=O)O)[C@H]3CCNC3)c2)c1)[C@H]1CCNC1 [Compound 7, (2S)-3-[3-({[2-({3-[(2S)-2-Carboxy-2-[(3R)-pyrrolidin-3-yl]ethyl]phenyl}amino)ethyl]({3-[(2S)-2-carboxy-2-[(3R)-pyrrolidin-3-yl]ethyl]phenyl}methyl)amino}methyl)phenyl]-2-[(3R)-pyrrolidin-3-yl]propanoic acid pentahydrochloride]

AUC ([2]; male, beagle, dog, plasma, po, read-out: Area under curve AUC): 23000 ng·h/mL | half-life ([2]; male, beagle, dog, plasma, po, read-out: Half-life T1/2 (converted)): 20.7 h | Cmax ([2]; male, beagle, dog, plasma, po, read-out: Maximum plasma concentration Cmax): 1630 ng/mL | AUC ([3]; 50 mg/kg): 22200 ng·h/mL | half-life ([3]; 50 mg/kg): 17.7 h | Cmax ([3]; 50 mg/kg): 2190 ng/mL | Unit-dose area under curve AUC/D ([3]; 50 mg/kg): 443 ng·h/mL per mg/kg
SMILES: O=C(O)[C@@H](Cc1cccc(CN(Cc2cccc(C[C@H](C(=O)O)[C@H]3CCNC3)c2)Cc2cccc(C[C@H](C(=O)O)[C@H]3CCNC3)c2)c1)[C@H]1CCNC1 [Reference 1, reference compound]
body weight trend of the mice [4]: significant downward trend | Mouse body weight, Day 0 [4]: 25.87 g | Mouse body weight, Day 3 [4]: 25.70 g | Mouse body weight, Day 5 [4]: 25.10 g | Mouse body weight, Day 7 [4]: 24.53 g

IC50 [1]: 0.41 nM | oral absorption compared with reference 1 ([2]; conclusion in words): better | AUC ([3]; 15 mg/kg): 33100 ng·h/mL | half-life ([3]; 15 mg/kg): 16.6 h | Cmax ([3]; 15 mg/kg): 2370 ng/mL | Unit-dose area under curve AUC/D ([3]; 15 mg/kg): 2200 ng·h/mL per mg/kg | plasma exposure relative to reference 1 ([3]; compound 6 15 mg/kg vs reference 1 50 mg/kg): ~5 times | oral absorption compared with reference 1 ([3]; conclusion in words): better
SMILES: O=C(O)[C@@H](Cc1cccc(CN(CCOc2cccc(C[C@H](C(=O)O)[C@H]3CCNC3)c2)Cc2cccc(C[C@H](C(=O)O)[C@H]3CCNC3)c2)c1)[C@H]1CCNC1 [Compound 6, (2S)-3-(3-{[(2-{3-[(2S)-2-Carboxy-2-[(3R)-pyrrolidin-3-yl]ethyl]phenoxy}ethyl)({3-[(2S)-2-carboxy-2-[(3R)-pyrrolidin-3-yl]ethyl]phenyl}methyl)amino]methyl}phenyl)-2-[(3R)-pyrrolidin-3-yl]propanoic acid tetrahydrochloride]
body weight trend of the mice [4]: remained unchanged or even increased | Mouse body weight, Day 0 [4]: 25.83 g | Mouse body weight, Day 3 [4]: 26.93 g | Mouse body weight, Day 5 [4]: 26.70 g | Mouse body weight, Day 7 [4]: 26.67 g
